Test results: US5698411A, “Method for determining activity of enzymes in metabolically active whole cells” (priority 1995, dated 1997)
Where “and” joins values, the source holds several entries; their conditions need not be identical. Equal entries are not always repeated.

What was measured:
Assay type in all cases: cell-based, human
[1] = tested on: metabolically active whole cell; test: substrate panel in normals and HIV + patients, TB infection (Table 4); design: unit not given here
Description: A panel of assay compounds are assembled consisting of Ala-aminopeptidase and Lys-aminopeptidase, Dipeptidyl peptidase IV (Ala-Ala)2 rhodamine 110 and Cathepsin D to indicate possible TB infection in AIDS related cases.
A panel Of enzymatic substrates is performed consisting of Ala-aminopeptidase and Lys-aminopeptidase, Dipeptidyl peptidase IV (Ala-Ala)2 rhodamine 110 and Cathepsin D to indicate possible TB infection in AIDS related cases.

lymphocytes [2] = test: peptidase activity in leukemia and non-leukemia patients, lymphocytes (Table 6C); design: unit not given here
From the text: (§1) Artificial intelligence was used to analyze data of cellular enzyme functions, and determine normal and disease states. Peptidases were used to distinguish leukemia from non-leukemia (output pattern). For input patterns lymphocyte and granulocyte cell types were used with aminopeptidases, cathepsins and dipeptidylpeptidase enzyme activities. In this Example, illustrated in Tables 6A-6C, three normals and three leukemia patients were used as known output patterns for the neural network to learn (in practice, the larger the learning set the more accurate unknown prediction will be). Unknowns were then presented to the learned algorithm as shown in the test case examples. Clinical diagnosis was confirmed by physicians. The trained neural network was able to correctly classify the leukemia from the non-leukemia.

granulocytes [3] = test: peptidase activity in leukemia and non-leukemia patients, granulocytes (Table 6C); design: unit not given here
From the text: as §1

lymphocytes [4] = test: aberrant enzyme activities in febrile children, lymphocytes (Table 7)
monocytes = test: aberrant enzyme activities in febrile children, monocytes (Table 7)
granulocytes [5] = test: aberrant enzyme activities in febrile children, granulocytes (Table 7)

NCCCC[C@H](N)C(=O)Nc1ccc2c(c1)Oc1cc(NC(=O)[C@@H](N)CCCCN)ccc1C21OC(=O)c2ccccc21 [LYS, (H-L-Lys)2 Rho 110 .4TFA]
MEAN DELTA FL ([1]; HIV + PATIENTS): 7.4
MEAN DELTA FL ([1]; NORMALS): 10.5
enzyme activity, Lymphs (lymphocytes [2]; J4 11/21/91 acute leuk.): 0.77
enzyme activity, Lymphs (lymphocytes [2]; J19 11/27/91 C L L): 0.98
enzyme activity, Lymphs (lymphocytes [2]; J22 12/2/91 A M L): 0.74
enzyme activity, Lymphs (lymphocytes [2]; J22 12/9/91 A M L): 1.20
enzyme activity, Lymphs (lymphocytes [2]; N192 normal): 0.56
enzyme activity, Lymphs (lymphocytes [2]; N193 normal): 0.52
enzyme activity, Lymphs (lymphocytes [2]; N194 normal): 0.93
enzyme activity, Lymphs (lymphocytes [2]; N197 normal): 0.70
enzyme activity, Lymphs (lymphocytes [2]; N199 normal): 0.33
enzyme activity, Lymphs (lymphocytes [2]; N200 normal): 0.90
enzyme activity, Lymphs (lymphocytes [2]; N202 normal): 0.71
enzyme activity, Lymphs (lymphocytes [2]; P71 ac. pyelonephritis): 0.91
enzyme activity, Grans (granulocytes [3]; J22 12/9/91 A M L): 1.90
enzyme activity, Grans (granulocytes [3]; N191 normal): 1.20
enzyme activity, Grans (granulocytes [3]; N192 normal): 1.20
enzyme activity, Grans (granulocytes [3]; N199 normal): 0.95
aberrant enzyme activity, LYMPHS (lymphocytes [4]; P92 Adenitis): .smallcircle.
aberrant enzyme activity, LYMPHS (lymphocytes [4]; P97 Pyelonephritis): .smallcircle.
aberrant enzyme activity, LYMPHS (lymphocytes [4]; P103 Viral Syndrome): .smallcircle.
aberrant enzyme activity, MONOS (monocytes; P97 Pyelonephritis): .smallcircle.
aberrant enzyme activity, GRANS (granulocytes [5]; P103 Viral Syndrome): .smallcircle.

CC(C)[C@H](N)C(=O)N[C@@H](CO)C(=O)Nc1ccc2c(c1)Oc1cc(NC(=O)[C@H](CO)NC(=O)[C@@H](N)C(C)C)ccc1C21OC(=O)c2ccccc21 [VS, (H-L-Val--Ser)2 Rho 110 .2TFA]
MEAN DELTA FL ([1]; HIV + PATIENTS): 32.5
MEAN DELTA FL ([1]; NORMALS): 24.6
enzyme activity, Lymphs (lymphocytes [2]; J4 11/21/91 acute leuk.): 0.05
enzyme activity, Lymphs (lymphocytes [2]; J4 12/2/91 A L): 0.03
enzyme activity, Lymphs (lymphocytes [2]; J4 12/3/91 acute leuk.): 0.04
enzyme activity, Lymphs (lymphocytes [2]; J5 11/27/91 A M L): 0.05
enzyme activity, Lymphs (lymphocytes [2]; J19 11/27/91 C L L): 0.01
enzyme activity, Lymphs (lymphocytes [2]; J22 12/2/91 A M L): 0.01
enzyme activity, Lymphs (lymphocytes [2]; J22 12/9/91 A M L): 0.04
enzyme activity, Lymphs (lymphocytes [2]; N191 normal): 0.14
enzyme activity, Lymphs (lymphocytes [2]; N192 normal): 0.08
enzyme activity, Lymphs (lymphocytes [2]; N193 normal): 0.09
enzyme activity, Lymphs (lymphocytes [2]; N194 normal): 0.07
enzyme activity, Lymphs (lymphocytes [2]; N195 normal): 0.06
enzyme activity, Lymphs (lymphocytes [2]; N197 normal): 0.11
enzyme activity, Lymphs (lymphocytes [2]; N199 normal): 0.03
enzyme activity, Lymphs (lymphocytes [2]; N200 normal): 0.06
enzyme activity, Lymphs (lymphocytes [2]; N201 normal): 0.07
enzyme activity, Lymphs (lymphocytes [2]; N202 normal): 0.04
enzyme activity, Lymphs (lymphocytes [2]; N206 normal): 0.28
enzyme activity, Lymphs (lymphocytes [2]; P68 tachycardia): 0.05
enzyme activity, Lymphs (lymphocytes [2]; P69 pancreatic CA): 0.18
enzyme activity, Lymphs (lymphocytes [2]; P70 cirrhosis/hemobilia): 0.04
enzyme activity, Lymphs (lymphocytes [2]; P71 ac. pyelonephritis): 0.08
enzyme activity, Grans (granulocytes [3]; J4 11/21/91 acute leuk.): 0.37
enzyme activity, Grans (granulocytes [3]; J4 12/2/91 A L): 0.14
enzyme activity, Grans (granulocytes [3]; J4 12/3/91 acute leuk.): 0.23
enzyme activity, Grans (granulocytes [3]; J22 12/2/91 A M L): 0.22
enzyme activity, Grans (granulocytes [3]; J22 12/9/91 A M L): 0.32
enzyme activity, Grans (granulocytes [3]; N191 normal): 0.64
enzyme activity, Grans (granulocytes [3]; N192 normal): 0.40
enzyme activity, Grans (granulocytes [3]; N193 normal): 0.44
enzyme activity, Grans (granulocytes [3]; N194 normal): 0.29
enzyme activity, Grans (granulocytes [3]; N195 normal): 0.37
enzyme activity, Grans (granulocytes [3]; N197 normal): 0.58
enzyme activity, Grans (granulocytes [3]; N199 normal): 0.14
enzyme activity, Grans (granulocytes [3]; N200 normal): 0.24
enzyme activity, Grans (granulocytes [3]; N201 normal): 0.32
enzyme activity, Grans (granulocytes [3]; N202 normal): 0.24
enzyme activity, Grans (granulocytes [3]; P68 tachycardia): 0.33
enzyme activity, Grans (granulocytes [3]; P69 pancreatic CA): 0.57
enzyme activity, Grans (granulocytes [3]; P70 cirrhosis/hemobilia): 0.26
enzyme activity, Grans (granulocytes [3]; P71 ac. pyelonephritis): 0.69
aberrant enzyme activity, LYMPHS (lymphocytes [4]; P95 Viral Syndrome): .smallcircle.
aberrant enzyme activity, LYMPHS (lymphocytes [4]; P96 Viral Syndrome): .smallcircle.
aberrant enzyme activity, LYMPHS (lymphocytes [4]; P97 Pyelonephritis): .smallcircle.
aberrant enzyme activity, LYMPHS (lymphocytes [4]; P103 Viral Syndrome): .smallcircle.
aberrant enzyme activity, MONOS (monocytes; P96 Viral Syndrome): .smallcircle.
aberrant enzyme activity, MONOS (monocytes; P103 Viral Syndrome): .smallcircle.
aberrant enzyme activity, GRANS (granulocytes [5]; P96 Viral Syndrome): .smallcircle.
aberrant enzyme activity, GRANS (granulocytes [5]; P97 Pyelonephritis): .smallcircle.
aberrant enzyme activity, GRANS (granulocytes [5]; P103 Viral Syndrome): .smallcircle.

CC(C)C[C@H](N)C(=O)NCC(=O)Nc1ccc2c(c1)Oc1cc(NC(=O)CNC(=O)[C@@H](N)CC(C)C)ccc1C21OC(=O)c2ccccc21 [LG]
enzyme activity, Lymphs (lymphocytes [2]; J4 11/21/91 acute leuk.): 0.16
enzyme activity, Lymphs (lymphocytes [2]; J4 12/2/91 A L): 0.18
enzyme activity, Lymphs (lymphocytes [2]; J4 12/3/91 acute leuk.): 0.19
enzyme activity, Lymphs (lymphocytes [2]; J5 11/27/91 A M L): 0.23
enzyme activity, Lymphs (lymphocytes [2]; J19 11/27/91 C L L): 0.02
enzyme activity, Lymphs (lymphocytes [2]; J22 12/2/91 A M L): 0.02
enzyme activity, Lymphs (lymphocytes [2]; J22 12/9/91 A M L): 0.61
enzyme activity, Lymphs (lymphocytes [2]; N199 normal): 0.85
enzyme activity, Lymphs (lymphocytes [2]; P68 tachycardia): 0.78
enzyme activity, Lymphs (lymphocytes [2]; P69 pancreatic CA): 2.00
enzyme activity, Lymphs (lymphocytes [2]; P70 cirrhosis/hemobilia): 0.79
enzyme activity, Lymphs (lymphocytes [2]; P71 ac. pyelonephritis): 0.68
enzyme activity, Grans (granulocytes [3]; J4 11/21/91 acute leuk.): 0.85
enzyme activity, Grans (granulocytes [3]; J4 12/2/91 A L): 0.79
enzyme activity, Grans (granulocytes [3]; N200 normal): 3.40
enzyme activity, Grans (granulocytes [3]; N202 normal): 2.70
enzyme activity, Grans (granulocytes [3]; P70 cirrhosis/hemobilia): 2.20
enzyme activity, Grans (granulocytes [3]; P71 ac. pyelonephritis): 4.00
aberrant enzyme activity, LYMPHS (lymphocytes [4]; P92 Adenitis): .smallcircle.
aberrant enzyme activity, LYMPHS (lymphocytes [4]; P97 Pyelonephritis): .smallcircle.
aberrant enzyme activity, LYMPHS (lymphocytes [4]; P102 UTI): .smallcircle.
aberrant enzyme activity, LYMPHS (lymphocytes [4]; P103 Viral Syndrome): .smallcircle.
aberrant enzyme activity, MONOS (monocytes; P92 Adenitis): .smallcircle.
aberrant enzyme activity, MONOS (monocytes; P96 Viral Syndrome): .smallcircle.
aberrant enzyme activity, MONOS (monocytes; P97 Pyelonephritis): .smallcircle.
aberrant enzyme activity, MONOS (monocytes; P101 Fever -- Unknown Origin): .smallcircle.
aberrant enzyme activity, MONOS (monocytes; P103 Viral Syndrome): .smallcircle.
aberrant enzyme activity, GRANS (granulocytes [5]; P92 Adenitis): .smallcircle.
aberrant enzyme activity, GRANS (granulocytes [5]; P96 Viral Syndrome): .smallcircle.
aberrant enzyme activity, GRANS (granulocytes [5]; P97 Pyelonephritis): .smallcircle.
aberrant enzyme activity, GRANS (granulocytes [5]; P101 Fever -- Unknown Origin): .smallcircle.
aberrant enzyme activity, GRANS (granulocytes [5]; P102 UTI): .smallcircle.

C[C@H](N)C(=O)NCC(=O)Nc1ccc2c(c1)Oc1cc(NC(=O)CNC(=O)[C@H](C)N)ccc1C21OC(=O)c2ccccc21 [ALA--GLY****]
MEAN DELTA FL ([1]; HIV + PATIENTS): 39.9 and 29.7
MEAN DELTA FL ([1]; NORMALS): 48.0 and 31.6
